Experiment: Analysis of additives in the multi-layered plastic container before and after sterilization by irradiation
Format: physicochemical
Conditions: After irradiation - dose of 25 kGy
Procedure: A physico-chemical study of the outer layers made of polypropylene before and after irradiation at 25 kGy was performed.

SMILES | Quantity of additives in polypropylene (ppm)
CC(C)(C)c1cc(CCC(=O)OCC(COC(=O)CCc2cc(C(C)(C)C)c(O)c(C(C)(C)C)c2)(COC(=O)CCc2cc(C(C)(C)C)c(O)c(C(C)(C)C)c2)COC(=O)CCc2cc(C(C)(C)C)c(O)c(C(C)(C)C)c2)cc(C(C)(C)C)c1O [IRGANOX 1010, pentaerythrityl tetrakis(3-(3,5-di-tert-butyl-4-hydroxyphenyl)-propionate)] | Not detected
CC(C)(C)c1cc(Cn2c(=O)n(Cc3cc(C(C)(C)C)c(O)c(C(C)(C)C)c3)c(=O)n(Cc3cc(C(C)(C)C)c(O)c(C(C)(C)C)c3)c2=O)cc(C(C)(C)C)c1O [IRGANOX 3114, 1,3,5-tris(3,5-di-tert-butyl-4-hydroxybenzyl)-s-triazine-2,4,6(1H,3H,5H)-trione] | Not detected
CC(C)(C)c1ccc(OP(Oc2ccc(C(C)(C)C)cc2C(C)(C)C)Oc2ccc(C(C)(C)C)cc2C(C)(C)C)c(C(C)(C)C)c1 [IRGAPHOS 168, phosphite tris(2,4-bis(1,1-dimethylethyl)-phenyl)] | Not detected
